Laboratory results taken from patent US12558428B2, “Heterobifunctional compounds and their use in treating disease” (Halda Therapeutics OpCo, Inc., priority 2024, dated 2026).

Key:
Type in all cases: cell-based
[1] = test system: T-Rex 293 cells having increased expression of estrogen receptor alpha protein; assay: Cellular growth inhibition assay, T-Rex 293 cells, (+) doxycycline; conditions: T-REx-293, 72 h, Table 7-A; T-Rex 293 cells with doxycycline (increased ERα expression); 72 hours; CellTiter-Glo; read-out: (+) Dox GI50
How it was run: (§1)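 ERα overexpression was switched on by 3 ng/mL doxycycline in a stably transfected T-Rex 293 clone, while uninduced cells served as the comparison line. Proliferation over 72 h of compound treatment was assessed by ATP luminescence, and GI50 values came from four-parameter curves.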

[2] = test system: MCF7 cells (ATCC #HTB-22); assay: Cellular growth inhibition assay, MCF7 cells purchased from ATCC; conditions: Homo sapiens, MCF7, 144 h, Table 8-A; MCF7 cells purchased from ATCC; six days; CellTiter-Glo; read-out: GI50
How it was run: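 MCF7 cells in RPMI 1640 with 10% FBS and 0.2 U/ml insulin, seeded at 1,500 cells/well (ATCC) or 225 cells/well (ECACC). Compounds added 24 h later, then 6 days at 37° C. Viability by CellTiter-Glo 2.0 luminescence. GI50 from four-parameter fit.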

[3] = test system: T-Rex 293 cells lacking increased expression of estrogen receptor alpha protein; assay: Cellular growth inhibition assay, T-Rex 293 cells, (−) doxycycline; conditions: T-REx-293, 72 h, Table 7-A; T-Rex 293 cells without doxycycline (lacking increased ERα expression); 72 hours; CellTiter-Glo; read-out: (−) Dox GI50
How it was run: as §1

GI50 [2]	Compound	GI50 [1]	GI50 [3]
< 50 nM	Cc1sc2c(c1C)C(c1ccc(N3CC(CC4(O)CCN(c5ccc([C@@H]6c7ccc(O)cc7CC[C@@H]6c6ccccc6)cc5)CC4)C3)cc1)=N[C@@H](C)c1nnc(C)n1-2 [III-158]	< 50 nM	50 to 500 nM
< 50 nM	Cc1sc2c(c1C)C(c1ccc(N3CC(O)(CC4CCN(c5ccc([C@@H]6c7ccc(O)cc7CC[C@@H]6c6ccccc6)cc5)CC4)C3)cc1)=N[C@@H](C)c1nnc(C)n1-2 [III-159]	< 50 nM	< 50 nM
< 50 nM	Cc1sc2c(c1C)C(c1ccc(N3CC(CN4CCN(C(=O)C5CN(c6ccc([C@@H]7c8ccc(O)cc8CC[C@@H]7c7ccccc7)cc6)C5)CC4)C3)cc1)=N[C@@H](C)c1nnc(C)n1-2 [III-160]	< 50 nM	50 to 500 nM
< 50 nM	Cc1sc2c(c1C)C(c1ccc(N3CC4(CCN(CC5CCN(c6ccc([C@@H]7c8ccc(O)cc8CC[C@@H]7c7ccccc7)cc6)CC5)CC4)C3)cc1)=N[C@@H](Cc1ncco1)c1nnc(C)n1-2 [III-161]	< 50 nM	50 to 500 nM
< 50 nM	Cc1sc2c(c1C)C(c1ccc(N3CC(CN4CCN(CC5CN(c6ccc([C@@H]7c8ccc(O)cc8CC[C@@H]7c7ccccc7)cc6)C5)CC4)C3)cc1)=N[C@@H](Cc1ncco1)c1nnc(C)n1-2 [III-162]	< 50 nM	50 to 500 nM
50 to 500 nM	Cc1sc2c(c1C)C(c1ccc(N3CCC(CC4(O)CCN(c5ccc([C@@H]6c7ccc(O)cc7CC[C@@H]6c6ccccc6)cc5)CC4)CC3)cc1)=N[C@H](Cc1ncco1)c1nnc(C)n1-2 [III-163]	> 2500 nM	> 2500 nM
< 50 nM	Cc1sc2c(c1C)C(c1ccc(N3CCC(CC4(O)CCN(c5ccc([C@@H]6c7ccc(O)cc7CC[C@@H]6c6ccccc6)cc5)CC4)CC3)cc1)=N[C@@H](Cc1ncco1)c1nnc(C)n1-2 [III-164]	< 50 nM	50 to 500 nM
< 50 nM	Cc1sc2c(c1C)C(c1ccc(N3CC(C(=O)N4CCN(CC5CN(c6ccc([C@@H]7c8ccc(O)cc8CC[C@@H]7c7ccccc7)cc6)C5)CC4)C3)cc1)=N[C@@H](C)c1nnc(C)n1-2 [III-165]	< 50 nM	50 to 500 nM
50 to 500 nM	Cc1sc2c(c1C)C(c1ccc(N3CC(CN4CCN(CC5(O)CN(c6ccc([C@@H]7c8ccc(O)cc8CC[C@@H]7c7ccccc7)cc6)C5)CC4)C3)cc1)=N[C@@H](C)c1nnc(C)n1-2 [III-166]	< 50 nM	50 to 500 nM
< 50 nM	CC1=C(C)C2C(c3ccc(N4CC(O)(CC5CCN(c6ccc([C@@H]7c8ccc(O)cc8CC[C@@H]7c7ccccc7)cc6)CC5)C4)cc3)=N[C@@H](Cc3ncco3)c3nnc(C)n3C2S1 (stereo partly drawn) [III-167]	< 50 nM	50 to 500 nM
< 50 nM	Cc1sc2c(c1C)C(c1ccc(N3CC(C(=O)N4CCN(CC5CN(c6ccc([C@@H]7c8ccc(O)cc8CC[C@@H]7c7ccccc7)cc6)C5)CC4)C3)cc1)=N[C@@H](Cc1ncco1)c1nnc(C)n1-2 [III-168]	< 50 nM	50 to 500 nM
50 to 500 nM	Cc1sc2c(c1C)C(c1ccc(C3CN(CC4(O)CCN(CC5CN(c6ccc([C@@H]7c8ccc(O)cc8CC[C@@H]7c7ccccc7)cc6)C5)CC4)C3)cc1)=N[C@@H](Cc1ncco1)c1nnc(C)n1-2 [III-169]	< 50 nM	50 to 500 nM
50 to 500 nM	Cc1sc2c(c1C)C(c1ccc(N3CCC(C(=O)N4CC(c5ccc([C@@H]6c7ccc(O)cc7CC[C@@H]6c6ccccc6)cc5)C4)CC3)cc1)=N[C@@H](C)c1nnc(C)n1-2 [III-170]	< 50 nM	50 to 500 nM
50 to 500 nM	Cc1sc2c(c1C)C(c1ccc(C3CN(CC4(O)CCN(C(=O)C5CN(c6ccc([C@@H]7c8ccc(O)cc8CC[C@@H]7c7ccccc7)cc6)C5)CC4)C3)cc1)=N[C@@H](C)c1nnc(C)n1-2 [III-171]	< 50 nM	50 to 500 nM
50 to 500 nM	Cc1sc2c(c1C)C(c1ccc(C3CN(C(=O)C4CCN(CC5CN(c6ccc([C@@H]7c8ccc(O)cc8CC[C@@H]7c7ccccc7)cc6)C5)CC4)C3)cc1)=N[C@@H](C)c1nnc(C)n1-2 [III-172]	< 50 nM	50 to 500 nM
< 50 nM	Cc1sc2c(c1C)C(c1ccc(N3CC(CN4CCC(C(=O)N5CC(c6ccc([C@@H]7c8ccc(O)cc8CC[C@@H]7c7ccccc7)cc6)C5)CC4)C3)cc1)=N[C@@H](C)c1nnc(C)n1-2 [III-173]	< 50 nM	50 to 500 nM
< 50 nM	CC1=C(C)C2C(c3ccc(N4CCC(C(=O)N5CC(c6ccc([C@@H]7c8ccc(O)cc8CC[C@@H]7c7ccccc7)cc6)C5)CC4)cc3)N[C@@H](Cc3ncco3)c3nnc(C)n3C2S1 (stereo partly drawn) [III-174]	< 50 nM	50 to 500 nM

GI50 [2]	Compound	GI50 [1]	GI50 [3]
< 50 nM	Cc1sc2c(c1C)C(c1ccc(C3CN(C(=O)C4CCN(CC5CN(c6ccc([C@@H]7c8ccc(O)cc8CC[C@@H]7c7ccccc7)cc6)C5)CC4)C3)cc1)=N[C@@H](Cc1ncco1)c1nnc(C)n1-2 [III-175]	< 50 nM	50 to 500 nM
< 50 nM	Cc1sc2c(c1C)C(c1ccc(N3CC(CN4CCC(C(=O)N5CC(c6ccc([C@@H]7c8ccc(O)cc8CC[C@@H]7c7ccccc7)cc6)C5)CC4)C3)cc1)=N[C@@H](Cc1ncco1)c1nnc(C)n1-2 [III-176]	< 50 nM	50 to 500 nM
50 to 500 nM	Cc1sc2c(c1C)C(c1ccc(N3CC(CN4CCC(O)(CN5CC(c6ccc([C@@H]7c8ccc(O)cc8CC[C@@H]7c7ccccc7)cc6)C5)CC4)C3)cc1)=N[C@@H](C)c1nnc(C)n1-2 [III-177]	< 50 nM	50 to 500 nM
< 50 nM	Cc1sc2c(c1C)C(c1ccc(N3CC(CC4(O)CCN(c5ccc([C@@H]6c7ccc(O)cc7CC[C@@H]6c6ccccc6)cc5)CC4)C3)cc1)=N[C@@H](Cc1ncco1)c1nnc(C)n1-2 [III-178]	< 50 nM	50 to 500 nM
< 50 nM	Cc1sc2c(c1C)C(c1ccc(N3CC(CN4CCN(C(=O)C5CN(c6ccc([C@@H]7c8ccc(O)cc8CC[C@@H]7c7ccccc7)cc6)C5)CC4)C3)cc1)=N[C@@H](Cc1ncco1)c1nnc(C)n1-2 [III-179]	< 50 nM	< 50 nM
< 50 nM	Cc1sc2c(c1C)C(c1ccc(N3CC(CN4CCC(O)(CN5CC(c6ccc([C@@H]7c8ccc(O)cc8CC[C@@H]7c7ccccc7)cc6)C5)CC4)C3)cc1)=N[C@@H](Cc1ncco1)c1nnc(C)n1-2 [III-180]	< 50 nM	50 to 500 nM
< 50 nM	Cc1sc2c(c1C)C(c1ccc(N3CC(O)(CN4CCN(CC5CN(c6ccc([C@@H]7c8ccc(O)cc8CC[C@@H]7c7ccccc7)cc6)C5)CC4)C3)cc1)=N[C@@H](Cc1ncco1)c1nnc(C)n1-2 [III-181]	< 50 nM	50 to 500 nM
50 to 500 nM	Cc1sc2c(c1C)C(c1ccc(N3CCC(O)(CN4CCN(c5ccc([C@@H]6c7ccc(O)cc7CC[C@@H]6c6ccc(F)cc6F)cc5)CC4)CC3)cc1)=N[C@@H](C)c1nnc(C)n1-2 [III-182]	< 50 nM	500 to 2500 nM
50 to 500 nM	Cc1sc2c(c1C)C(c1ccc(N3CCC(O)(CN4CCN(c5ccc([C@H]6c7ccc(O)cc7CC[C@H]6c6ccc(F)cc6F)cc5)CC4)CC3)cc1)=N[C@@H](C)c1nnc(C)n1-2 [III-183]	< 50 nM	500 to 2500 nM
50 to 500 nM	Cc1sc2c(c1C)C(c1ccc(N3CCC(O)(CN4CCN(c5ccc([C@H]6c7ccc(O)cc7CC[C@H]6c6ccc(F)cc6)cc5)CC4)CC3)cc1)=N[C@@H](C)c1nnc(C)n1-2 [III-184]	< 50 nM	50 to 500 nM
< 50 nM	Cc1sc2c(c1C)C(c1ccc(N3CCC(O)(CN4CCN(c5ccc([C@@H]6c7ccc(O)cc7CC[C@@H]6c6ccc(F)cc6)cc5)CC4)CC3)cc1)=N[C@@H](C)c1nnc(C)n1-2 [III-185]	< 50 nM	500 to 2500 nM
< 50 nM	Cc1sc2c(c1C)C(c1ccc(N3CCC(O)(CN4CCN(c5cc(F)c([C@@H]6c7ccc(O)cc7CC[C@@H]6c6ccccc6)c(F)c5)CC4)CC3)cc1)=N[C@@H](C)c1nnc(C)n1-2 [III-186]	< 50 nM	500 to 2500 nM
50 to 500 nM	Cc1sc2c(c1C)C(c1ccc(N3CCC(O)(CN4CCN(c5cc(F)c([C@H]6c7ccc(O)cc7CC[C@H]6c6ccccc6)c(F)c5)CC4)CC3)cc1)=N[C@@H](C)c1nnc(C)n1-2 [III-187]	< 50 nM	50 to 500 nM
50 to 500 nM	Cc1sc2c(c1C)C(c1ccc(N3CCC(O)(CN4CCN(c5ccc([C@@H]6c7ccc(C(=O)O)cc7CC[C@@H]6c6ccccc6)cc5)CC4)CC3)cc1)=N[C@@H](C)c1nnc(C)n1-2 [III-188]	< 50 nM	50 to 500 nM
50 to 500 nM	Cc1sc2c(c1C)C(c1ccc(N3CCC(O)(CN4CCN(c5ccc([C@H]6c7ccc(C(=O)O)cc7CC[C@H]6c6ccccc6)cc5)CC4)CC3)cc1)=N[C@@H](C)c1nnc(C)n1-2 [III-189]	> 2500 nM	> 2500 nM
50 to 500 nM	Cc1sc2c(c1C)C(c1ccc(N3CCC4(CCN(CC5CCN(c6ccc([C@@H]7c8ccc(O)cc8CC[C@@H]7c7ccccc7)cc6)CC5)CC4)C3)cc1)=N[C@@H](C)c1nnc(C)n1-2 [III-190]	< 50 nM	500 to 2500 nM
